Values quoted from earlier work in patent publication US20120015880A1 (priority 2008, published 2012).
Like-named read-outs stand apart in the source and are kept apart here.

Details: in vivo

**Q.** With NC(=O)CC[C@@H]1NC(=O)[C@H](Cc2ccccc2)NC(=O)[C@H](Cc2ccc(O)cc2)NC(=O)CCSSC[C@@H](C(=O)N2CCC[C@H]2C(=O)N[C@H](CCCN=C(N)N)C(=O)NCC(N)=O)NC(=O)[C@H](CC(N)=O)NC1=O [desmopressin, 1-desamino-8-D-arginine vasopressin] as the compound, how does the bioavailability (human) read?
**A.** ~100%

**Q.** And the half life (human)?
**A.** ~1.5 h

**Q.** And the bioavailability (human, inhaled or intranasal)?
**A.** 3-5%

**Q.** And the “range of Cmax between patients” value (human, inhaled or intranasal)?
**A.** 6-10 fold

**Q.** What about the bioavailability (po) of the same compound?
**A.** far less than one percent
